Where “and” joins values, the source holds several entries; their conditions need not be identical. Equal entries are not always repeated. Where two headings read alike, the source gives them in different places.
Assays:
SARS-CoV-2 M^pro = target: T1, SARS-CoV-2 M^pro (Severe acute respiratory syndrome coronavirus 2, UniProt P0DTD1); experiment: SARS-CoV-2 M^pro inhibition assay (chromogenic peptide substrate); assay type: biochemical; conditions: for IC50: M^pro, substrate 200 μM; for inhibition at 200 µM: read-out: effect at 200 μM (%); for obs.: observation at the end of the M^pro experiment; for solubility during the biological testing: result in words, M^pro testing
T1 construct: 30 μL of Mpro enzyme (Sigma-Aldrich) at a final concentration of 10 μg/mL; purchased Sigma-Aldrich
Procedure: Inhibitory effects against M^pro of all compounds were evaluated based on the experimental procedure provided by the manufacturer with some modifications.
[…] of chemicals dissolved in DMSO, with a final concentration of 200 μM, were put in triplicate to each well of a 96-well flat bottom microplate. After that, the plate was incubated for 10 min at room temperature with 30 μL of Mpro enzyme (Sigma-Aldrich) at a final concentration of 10 μg/mL diluted in buffer containing 25 mM HEPES (Sigma-Aldrich) and 0.2% of Tween-20 (Sigma-Aldrich). Furthermore, the chromogenic peptide substrate (Thr-Ser-Ala-Val-Leu-Gln-pNA, Sigma-Aldrich) was added in a volume of 10 μL to each well, at a final concentration of 200 μM and incubated for another 45 min at 37 °C. […] As directed by the manufacturer, with minor modifications, the experiment was carried out to ascertain the half-maximum inhibitory concentration (IC50) that may block the activity of the M^pro enzyme. […] The plate was then kept at room temperature for 10 min. Following this time interval, 10 μL of a 200 μM final concentration of chromogenic peptide substrate (Sigma-Aldrich) was added to each well, and the mixture was incubated for an additional 45 min at 37 °C.

[1] = Cytotoxicity against THP-1 cells (resazurin); assay type: cell-based; conditions: human, THP-1 cells differentiated with PMA, read-out: CC50 ± SD (μM) THP-1
Procedure: (§1) In a 96-well flat bottom microplate, THP-1 cells (12 × 10^4 cells/well) were seeded with 180 μL of RPMI 1640 medium (Sigma-Aldrich) without phenol red supplemented with 10% FBS (Sigma-Aldrich), 2 mM L-glutamine (Gibco), […] (Sigma-Aldrich), 10 U/mL penicillin (Gibco), and 10 μg/mL streptomycin (Gibco) in the presence of 100 ng/mL of phorbol-12-myristate-13-acetate (PMA) (Sigma-Aldrich). The microplate was then incubated at 37 °C in a 5% CO2 atmosphere for 72 h. Vero cells ([…]) were seeded in 180 μL of RPMI 1640 media (Sigma-Aldrich), which was then supplemented with 10% FBS (Sigma-Aldrich), 10 U/mL penicillin (Gibco), and 10 μg/mL streptomycin (Gibco). The cells were then incubated for 24 h at 37 °C in a 5% CO2 environment. Each target chemical, diluted in RPMI-1640 media (Sigma-Aldrich) without FBS, at doses of 150, 50, 16.7, and 5.6 μM, was applied in 20 μL to each of the two cell lines. The positive and negative controls were 50 and 0.3% DMSO (Sigma-Aldrich), respectively. The plates were incubated in an environment containing 5% CO2 for 67 h at 37 °C. Next, 20 μL of resazurin (250 μg/mL) from Sigma-Aldrich was added, and the mixture was incubated at 37 °C for 5 h. The microplate was measured using a Tecan Model Infinite M200 spectrophotometer at 530 and 590 nm in wavelengths. Every experiment was run three times.[23],[24]

[2] = Cytotoxicity against Vero cells (resazurin); assay type: cell-based; conditions: African green monkey, read-out: CC50 ± SD (μM) Vero
Procedure: as §1

ZIKV NS2B/NS3 = target: T2, ZIKV NS2B/NS3 (Zika virus, UniProt Q32ZE1); experiment: ZIKV NS2B/NS3 protease fluorogenic substrate assay; assay type: biochemical; conditions: for inhibition at 100 µM: read-out: screening at 100 μM (%); for mechanism of inhibition: ZIKV NS2B/NS3, IC50 at four substrate concentrations, Dixon plots; for inhibition at 20 µM: read-out: screening at 20 μM (%)
T2 construct: tested against the nonstructural protease of ZIKV (NS2B/NS3)

DENV-2 NS2B/NS3 = DENV-2 NS2B/NS3 (Dengue virus type 2, UniProt P29990); experiment: DENV-2 NS2B/NS3 protease fluorogenic substrate assay; conditions: for inhibition at 100 µM: read-out: screening at 100 μM (%), DENV-2 NS2B/NS3, 100 μM compound
[3] = inhibitory percentage against M^pro at 200 μM, NA: no activity
[4] = IC50 at substrate 50 μM, binding mechanism study, Boc-Gly-Arg-Arg-AMC 50 μM
[5] = IC50 at substrate 100 μM, binding mechanism study, Boc-Gly-Arg-Arg-AMC 100 μM
[6] = IC50 at substrate 150 μM, binding mechanism study, Boc-Gly-Arg-Arg-AMC 150 μM
[7] = IC50 at substrate 200 μM, binding mechanism study, Boc-Gly-Arg-Arg-AMC 200 μM
[8] = ZIKV NS2B/NS3, substrate 100 μM, read-out: IC50

T2 sequence (Q32ZE1 1421-1460): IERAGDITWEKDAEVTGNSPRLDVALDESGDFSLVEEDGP
T2 sequence (Q32ZE1 1499-1676): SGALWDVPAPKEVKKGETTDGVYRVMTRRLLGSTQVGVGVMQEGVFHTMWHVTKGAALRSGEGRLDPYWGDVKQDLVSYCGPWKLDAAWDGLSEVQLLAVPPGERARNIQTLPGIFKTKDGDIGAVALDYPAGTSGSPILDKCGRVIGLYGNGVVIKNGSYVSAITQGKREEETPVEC
Sequence of DENV-2 NS2B/NS3 (P29990 1398-1437): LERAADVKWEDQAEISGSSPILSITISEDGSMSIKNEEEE
Sequence of DENV-2 NS2B/NS3 (P29990 1476-1653): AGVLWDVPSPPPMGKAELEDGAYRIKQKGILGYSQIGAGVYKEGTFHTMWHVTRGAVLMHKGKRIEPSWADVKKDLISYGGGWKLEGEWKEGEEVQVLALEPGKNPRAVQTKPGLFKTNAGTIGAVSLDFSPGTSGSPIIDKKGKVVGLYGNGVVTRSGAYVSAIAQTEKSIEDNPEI

Compound	IC50 (SARS-CoV-2 M^pro) [µM]	inhibition at 200 µM (SARS-CoV-2 M^pro; [3]) [%]	CC50 at 67 h [1] [µM]	CC50 at 67 h [2] [µM]	inhibition at 100 µM (ZIKV NS2B/NS3; ZIKV NS2B/NS3, 100 μM compound) [%]	IC50 (ZIKV NS2B/NS3; [8]) [µM]	inhibition at 100 µM (DENV-2 NS2B/NS3) [%]	inhibition at 20 µM (ZIKV NS2B/NS3; ZIKV NS2B/NS3, 20 μM compound) [%]	other results
CC(C)=CCCC(C)=CCOC(=O)c1cc(O)c(O)c(O)c1 [Compound 2f]	9.5 ± 1	97	72.1 ± 7.3	48.4 ± 13.2	99 ± 0.4	2.7 ± 0.3	> 50		IC50 (ZIKV NS2B/NS3; [4]): 3.2 µM; IC50 (ZIKV NS2B/NS3; [5]): 3.04 µM; IC50 (ZIKV NS2B/NS3; [6]): 3.6 µM and 3.61 µM; IC50 (ZIKV NS2B/NS3; [7]): 3.78 µM; screening at 20 μM (%) (ZIKV NS2B/NS3; ZIKV NS2B/NS3, 20 μM compound): 98 ± 1.1%; mechanism of inhibition (ZIKV NS2B/NS3): noncompetitive; inhibition at 20 µM (ZIKV NS2B/NS3): 98%
CC(C)CCOC(=O)c1cc(O)c(O)c(O)c1 [Compound 2e]	2.6 ± 1	99.5	47 ± 6.5	> 150	99 ± 0.2	13 ± 0.4	> 50	72 ± 3.1	
CC(C)OC(=O)c1cc(O)c(O)c(O)c1 [Compound 2a]	20.7 ± 8.2	78	78.5 ± 8.1	> 150	98 ± 0.5	19.8 ± 0.5	48 ± 1	51 ± 3.4	IC50 (DENV-2 NS2B/NS3; IC50 (μM), DENV-2 NS2B/NS3, substrate 100 μM): > 100 µM
O=C(OCCc1ccccc1)c1cc(O)c(O)c(O)c1 [Compound 2j]		60.8	22.9 ± 3.2	> 150	82 ± 2.7	19.7 ± 2.1	22 ± 1	50 ± 3.8	obs. (SARS-CoV-2 M^pro): SP^#; solubility during the biological testing (SARS-CoV-2 M^pro): solubility problems
CC1(C)CC[C@]2(C)CC=C3[C@]4(C)CC[C@H]5C(C)(C)C(=O)CC[C@]5(C)[C@H]4CC[C@@]3(C)[C@@H]2C1 [Compound 1a, taraxerone]									effect at 200 μM (%) (SARS-CoV-2 M^pro; [3]): 84.0%; obs. (SARS-CoV-2 M^pro): SP^#; inhibition at 200 µM (SARS-CoV-2 M^pro): 84%; solubility during the biological testing (SARS-CoV-2 M^pro): low solubility
methyl 3,5-dihydroxy-4-methoxybenzoate [Compound 2m]									effect at 200 μM (%) (SARS-CoV-2 M^pro; [3]): 44.2%
COC(=O)c1cc(O)c(O)c(O)c1 [Compound 2, methyl gallate]	4.5 ± 1.8		52.9 ± 19.2	> 150					effect at 200 μM (%) (SARS-CoV-2 M^pro; [3]): 68.0%; inhibition at 200 µM (SARS-CoV-2 M^pro): 68%
CC(C)=CCCC(C)CCOC(=O)c1cc(O)c(O)c(O)c1 (centres unmarked) [Compound 2g]	88.7 ± 11.6	73.3	32.1 ± 3.4	82.1 ± 31.5	97 ± 1.1	1.9 ± 0.1	28 ± 2		IC50 (ZIKV NS2B/NS3; [4]): 2.93 µM; IC50 (ZIKV NS2B/NS3; [5]): 2.48 µM; IC50 (ZIKV NS2B/NS3; [6]): 2.96 µM; IC50 (ZIKV NS2B/NS3; [7]): 2.03 µM; screening at 20 μM (%) (ZIKV NS2B/NS3; ZIKV NS2B/NS3, 20 μM compound): 99 ± 0.4%; mechanism of inhibition (ZIKV NS2B/NS3): noncompetitive; inhibition at 20 µM (ZIKV NS2B/NS3): 99%
O=c1c2ccccc2[se]n1-c1ccccc1 [Ebselen, reference compound]									effect (%) of positive control (SARS-CoV-2 M^pro; Ebselen at 10 μM): 90%
C=CCOC(=O)c1cc(O)c(O)c(O)c1 [Compound 2d]	12.4 ± 2.4	94.3	28.5 ± 3.2	> 150	53 ± 1.7	92.5 ± 3.1	29 ± 1	25 ± 2.2	
C=CCCOC(=O)c1cc(O)c(O)c(O)c1 [Compound 2c]	35.8 ± 4.5	80.4	38.8 ± 4.4	> 150	48 ± 2.2	> 100	18 ± 3	25 ± 2.6	
CCCCCCCCCCCCCCOC(=O)c1cc(O)c(O)c(O)c1 [Compound 2b]						84.9 ± 9	21 ± 3		inhibition at 20 µM (ZIKV NS2B/NS3): 64 ± 2.5%; inhibition at 100 µM (ZIKV NS2B/NS3): 55 ± 2.3%
O=C(OCCCc1ccccc1)c1cc(O)c(O)c(O)c1 [Compound 2h]		45.1			99 ± 0.2	4.8 ± 0.5	20 ± 1		screening at 20 μM (%) (ZIKV NS2B/NS3; ZIKV NS2B/NS3, 20 μM compound): 96 ± 0.4%; inhibition at 20 µM (ZIKV NS2B/NS3): 96%
COC(=O)c1cc(OC)c(OC)c(OC)c1 [Compound 2l, Methyl 3,4,5-trimethoxybenzoate]		55.5	> 150	> 150					obs. (SARS-CoV-2 M^pro): SP^#; solubility during the biological testing (SARS-CoV-2 M^pro): solubility problems
CC1(C)CC[C@]2(C)CC=C3[C@]4(C)CC[C@H]5C(C)(C)[C@@H](O)CC[C@]5(C)[C@H]4CC[C@@]3(C)[C@@H]2C1 [Compound 1, taraxerol]									effect at 200 μM (%) (SARS-CoV-2 M^pro; [3]): 48.0%; inhibition at 200 µM (SARS-CoV-2 M^pro): 48%
C=CC(C)(CCC=C(C)C)OC(=O)c1cc(O)c(O)c(O)c1 (centres unmarked) [Compound 2i]	4 ± 0.9	80	98.9 ± 5	> 150					
CCC=CCCOC(=O)c1cc(O)c(O)c(O)c1 [Compound 2k]		41.9			100 ± 0.1	6.1 ± 0.6	28 ± 4	86 ± 0.8	
